Nine molecules from ChEMBL document CHEMBL3745628, “ent-Abietane-type diterpenoids from the roots of Euphorbia ebracteolata with their inhibitory activities on LPS-induced NO production in RAW 264.7 macrophages” (Bioorg Med Chem Lett, 2016) can be followed below.

In data set [1] the test system is RAW264.7. In words: Antiinflammatory activity in mouse RAW264.7 cells assessed as inhibition of LPS-induced NO production after 24 hrs by Griess method. It counts as functional, cell-based. The conditions noted are these: RAW264.7, 24 h.
For data set [2], the system named is RAW264.7. In words: Cytotoxicity against mouse RAW264.7 cells assessed as reduction in cell viability at IC50 by MTT assay. Format: cell-based.

On to `CC1=C2C(=C[C@H]3[C@]4(C)CCCC(C)(C)[C@H]4CC[C@]34O[C@H]24)OC1=O`, for which, in the data set with RAW264.7 [1], the IC50 came to 25 µM. Further, in the data set on RAW264.7 [2], the Activity entry is reported as “Non-toxic”.

Take `CC1=C2C=C3CC[C@@H]4C(C)(C)CCC[C@@]4(C)[C@@H]3[C@@H](O)[C@H]2OC1=O`: in the data set with RAW264.7 [1], the IC50 amounted to 5.94 µM. Also, in the data set with RAW264.7 [2], the Activity result is reported as “Non-toxic”.

Turning to `CC1=C2[C@@H](O)C3=CC[C@@H]4C(C)(C)CCC[C@@]4(C)[C@@H]3[C@@H](O)[C@H]2OC1=O`, in the data set with RAW264.7 [1], the IC50 turned out to be 14.2 µM. The Activity entry in the data set on RAW264.7 [2] is on record as “Non-toxic”.

On to `CC1=C2[C@@H](O)[C@@]3(O)CC[C@@H]4C(C)(C)CCC[C@@]4(C)[C@@H]3[C@@H](O)[C@H]2OC1=O`, for which the IC50 with RAW264.7 [1] worked out at 4.44 µM. Moreover, in the data set with RAW264.7 [2], the Activity entry is given as “Non-toxic”.

`CC1=C2[C@H](OC1=O)[C@H](O)[C@H]1[C@]3(C)CCCC(C)(C)[C@H]3CC[C@@]1(O)[C@H]2O`: the IC50 with RAW264.7 [1] was 15.5 µM. The Activity result in the data set on RAW264.7 [2] was “Non-toxic”.

As for `CC1=C2[C@@H](O)C3=C([C@@H](O)[C@H]2OC1=O)[C@]1(C)CCCC(C)(C)[C@H]1CC3`, in the data set with RAW264.7 [1], the IC50 stood at 33.1 µM. Further, the Activity result in the data set on RAW264.7 [2] is listed as “Non-toxic”.

For the molecule `CC1=C2[C@H]3O[C@]34CC[C@@H]3C(C)(C)CCC[C@@]3(C)[C@@H]4[C@@H](O)[C@H]2OC1=O`, the IC50 with RAW264.7 [1] came to 6.98 µM. Further, the Activity result in the data set with RAW264.7 [2] is reported as “Non-toxic”.

`CC1=C2C(=O)C3=C([C@@H](O)[C@H]2OC1=O)[C@]1(C)CCCC(C)(C)[C@H]1CC3`: the IC50 in the data set with RAW264.7 [1] turned out to be 0.69 µM. Besides, in the data set with RAW264.7 [2], the Activity entry is “Non-toxic”.

For the molecule `CO[C@@]12OC(=O)C(C)=C1C=C1CC[C@@H]3C(C)(C)CCC[C@@]3(C)[C@@H]1[C@H]2O`, in the data set on RAW264.7 [1], the IC50 was determined as 1.97 µM. Moreover, in the data set on RAW264.7 [2], the Activity result is “Non-toxic”.
